The source made the active and inactive calls. How the calls were made is not given here.
Tested on: rodent lifetime carcinogenesis bioassay, tumor incidence TD50
Assay: chronic cancer bioassays in animals – CPDB, compiled studies (AID 1745844)

CCOC(N)=O
TD50 (hamster, strain Syrian Golden, females, in drinking water, site: adrenal gland, lesion: cortical carcinoma, dosed 90 weeks, study length 90 weeks): 349 mg/kg/day
TD50 (hamster, strain Syrian Golden, females, in drinking water, site: adrenal gland, lesion: several types, types named in the paper, dosed 90 weeks, study length 90 weeks): 318 mg/kg/day
TD50 (hamster, strain Syrian Golden, females, in drinking water, site: cecum, lesion: adenomatous polyp, dosed 90 weeks, study length 90 weeks): 294 mg/kg/day
TD50 (hamster, strain Syrian Golden, females, in drinking water, site: dermis, lesion: melanocytoma, dosed 90 weeks, study length 90 weeks): 74.4 mg/kg/day
TD50 (hamster, strain Syrian Golden, females, in drinking water, site: forestomach, lesion: carcinoma, dosed 90 weeks, study length 90 weeks): 374 mg/kg/day
TD50 (hamster, strain Syrian Golden, females, in drinking water, site: forestomach, lesion: papilloma, dosed 55 weeks, study length 55 weeks): 102 mg/kg/day
TD50 (hamster, strain Syrian Golden, females, in drinking water, site: forestomach, lesion: papilloma, dosed 90 weeks, study length 90 weeks): 44.5 mg/kg/day
TD50 (hamster, strain Syrian Golden, females, in drinking water, site: gall bladder, lesion: papilloma, dosed 90 weeks, study length 90 weeks): 682 mg/kg/day
TD50 (hamster, strain Syrian Golden, females, in drinking water, site: lung, lesion: adenoma, dosed 90 weeks, study length 90 weeks): 1360 mg/kg/day
TD50 (hamster, strain Syrian Golden, females, in drinking water, site: ovary, lesion: carcinoma, dosed 90 weeks, study length 90 weeks): 682 mg/kg/day
TD50 (hamster, strain Syrian Golden, females, in drinking water, site: skin, lesion: melanotic tumor, dosed 55 weeks, study length 55 weeks): 496 mg/kg/day
TD50 (hamster, strain Syrian Golden, females, in drinking water, site: thyroid gland, lesion: several types, types named in the paper, dosed 90 weeks, study length 90 weeks): 538 mg/kg/day
TD50 (hamster, strain Syrian Golden, females, in drinking water, site: vagina, lesion: carcinoma, dosed 90 weeks, study length 90 weeks): 314 mg/kg/day
TD50 (hamster, strain Syrian Golden, males, in drinking water, site: adrenal gland, lesion: cortical adenoma, dosed 103 weeks, study length 103 weeks): 564 mg/kg/day
TD50 (hamster, strain Syrian Golden, males, in drinking water, site: cecum, lesion: adenomatous polyp, dosed 103 weeks, study length 103 weeks): 765 mg/kg/day
TD50 (hamster, strain Syrian Golden, males, in drinking water, site: dermis, lesion: melanocytoma, dosed 103 weeks, study length 103 weeks): 109 mg/kg/day
TD50 (hamster, strain Syrian Golden, males, in drinking water, site: forestomach, lesion: carcinoma, dosed 103 weeks, study length 103 weeks): 135 mg/kg/day
TD50 (hamster, strain Syrian Golden, males, in drinking water, site: forestomach, lesion: papilloma, dosed 76 weeks, study length 76 weeks): 95.8 mg/kg/day
TD50 (hamster, strain Syrian Golden, males, in drinking water, site: forestomach, lesion: papilloma, dosed 103 weeks, study length 103 weeks): 64.2 mg/kg/day
TD50 (hamster, strain Syrian Golden, males, in drinking water, site: liver, lesion: several types, types named in the paper, dosed 103 weeks, study length 103 weeks): 1280 mg/kg/day
TD50 (hamster, strain Syrian Golden, males, in drinking water, site: lung, lesion: adenoma, dosed 103 weeks, study length 103 weeks): 927 mg/kg/day
TD50 (hamster, strain Syrian Golden, males, in drinking water, site: skin, lesion: melanotic tumor, dosed 76 weeks, study length 76 weeks): 74.2 mg/kg/day
TD50 (monkey, strain Cynomolgus [Macaca fascicularis], both sexes, in feed, site: any site (literature study), lesion: benign tumor, dosed 258 weeks, study length 1208 weeks): 128 mg/kg/day
TD50 (monkey, strain Cynomolgus [Macaca fascicularis], both sexes, in feed, site: any site (literature study), lesion: malignant tumor, dosed 258 weeks, study length 1208 weeks): 21.5 mg/kg/day
TD50 (monkey, strain Cynomolgus [Macaca fascicularis], both sexes, in feed, site: any site (literature study), lesion: several types, types named in the paper, dosed 258 weeks, study length 1208 weeks): 25.5 mg/kg/day
TD50 (monkey, strain Cynomolgus [Macaca fascicularis], both sexes, in feed, site: liver, lesion: hemangiosarcoma, dosed 258 weeks, study length 1208 weeks): 95 mg/kg/day
TD50 (monkey, strain Cynomolgus [Macaca fascicularis], both sexes, in feed, site: liver, lesion: hepatocellular adenoma, dosed 258 weeks, study length 1208 weeks): 31.7 mg/kg/day
TD50 (monkey, strain Cynomolgus [Macaca fascicularis], both sexes, in feed, site: lung, lesion: bronchogenic carcinoma, dosed 258 weeks, study length 1208 weeks): 31.7 mg/kg/day
TD50 (monkey, strain Cynomolgus [Macaca fascicularis], both sexes, in feed, site: pancreas, lesion: adenocarcinoma, dosed 258 weeks, study length 1208 weeks): 52.8 mg/kg/day
TD50 (monkey, strain Cynomolgus [Macaca fascicularis], both sexes, in feed, site: several sites, pooled by Berkeley, lesion: several types, pooled by Berkeley, dosed 258 weeks, study length 1208 weeks): 16.4 mg/kg/day
TD50 (monkey, strain Rhesus [Macaca mulatta], both sexes, in feed, site: adrenal gland, lesion: pheochromocytoma, dosed 258 weeks, study length 1281 weeks): 117 mg/kg/day
TD50 (monkey, strain Rhesus [Macaca mulatta], both sexes, in feed, site: any site (literature study), lesion: benign tumor, dosed 258 weeks, study length 1281 weeks): 75.9 mg/kg/day
TD50 (monkey, strain Rhesus [Macaca mulatta], both sexes, in feed, site: any site (literature study), lesion: malignant tumor, dosed 258 weeks, study length 1281 weeks): 52.9 mg/kg/day
TD50 (monkey, strain Rhesus [Macaca mulatta], both sexes, in feed, site: any site (literature study), lesion: several types, types named in the paper, dosed 258 weeks, study length 1281 weeks): 26.3 mg/kg/day
TD50 (monkey, strain Rhesus [Macaca mulatta], both sexes, in feed, site: cheek pouch, lesion: squamous-cell papilloma, dosed 258 weeks, study length 1281 weeks): 75.5 mg/kg/day
TD50 (monkey, strain Rhesus [Macaca mulatta], both sexes, in feed, site: jejunum, lesion: adenocarcinoma, dosed 258 weeks, study length 1281 weeks): 65.2 mg/kg/day
TD50 (monkey, strain Rhesus [Macaca mulatta], both sexes, in feed, site: liver, lesion: hemangiosarcoma, dosed 258 weeks, study length 1281 weeks): 143 mg/kg/day
TD50 (monkey, strain Rhesus [Macaca mulatta], both sexes, in feed, site: liver, lesion: hepatocellular carcinoma, dosed 258 weeks, study length 1281 weeks): 143 mg/kg/day
TD50 (monkey, strain Rhesus [Macaca mulatta], both sexes, in feed, site: several sites, pooled by Berkeley, lesion: several types, pooled by Berkeley, dosed 258 weeks, study length 1281 weeks): 44.8 mg/kg/day
TD50 (mouse, strain B6AKF1, females, oral dosing, site: Harderian gland, lesion: adenoma, dosed 73 weeks, study length 73 weeks): 59.7 mg/kg/day
TD50 (mouse, strain B6AKF1, females, oral dosing, site: all sites, lesion: angioma, dosed 73 weeks, study length 73 weeks): 31.7 mg/kg/day
TD50 (mouse, strain B6AKF1, females, oral dosing, site: any site (literature study), lesion: several types, types named in the paper, dosed 73 weeks, study length 73 weeks): 9.73 mg/kg/day
TD50 (mouse, strain B6AKF1, females, oral dosing, site: liver, lesion: hepatoma, dosed 73 weeks, study length 73 weeks): 89.9 mg/kg/day
TD50 (mouse, strain B6AKF1, females, oral dosing, site: lung, lesion: adenoma, dosed 73 weeks, study length 73 weeks): 29.3 mg/kg/day
TD50 (mouse, strain B6AKF1, females, oral dosing, site: lung, lesion: carcinoma, dosed 73 weeks, study length 73 weeks): 89.9 mg/kg/day
TD50 (mouse, strain B6AKF1, females, oral dosing, site: lung, lesion: several types, types named in the paper, dosed 73 weeks, study length 73 weeks): 12.5 mg/kg/day
TD50 (mouse, strain B6AKF1, males, oral dosing, site: Harderian gland, lesion: adenoma, dosed 72 weeks, study length 72 weeks): 35.8 mg/kg/day
TD50 (mouse, strain B6AKF1, males, oral dosing, site: all sites, lesion: reticulum-cell sarcoma, dosed 72 weeks, study length 72 weeks): 77.9 mg/kg/day
TD50 (mouse, strain B6AKF1, males, oral dosing, site: any site (literature study), lesion: several types, types named in the paper, dosed 72 weeks, study length 72 weeks): 11.2 mg/kg/day
TD50 (mouse, strain B6AKF1, males, oral dosing, site: liver, lesion: hepatoma, dosed 72 weeks, study length 72 weeks): 39 mg/kg/day
TD50 (mouse, strain B6AKF1, males, oral dosing, site: liver, lesion: several types, types named in the paper, dosed 72 weeks, study length 72 weeks): 26 mg/kg/day
TD50 (mouse, strain B6AKF1, males, oral dosing, site: lung, lesion: adenoma, dosed 72 weeks, study length 72 weeks): 27.8 mg/kg/day
TD50 (mouse, strain B6AKF1, males, oral dosing, site: lung, lesion: several types, types named in the paper, dosed 72 weeks, study length 72 weeks): 24.2 mg/kg/day
TD50 (mouse, strain B6C3F1, females, oral dosing, site: any site (literature study), lesion: several types, types named in the paper, dosed 68 weeks, study length 68 weeks): 13.7 mg/kg/day
TD50 (mouse, strain B6C3F1, females, oral dosing, site: liver, lesion: hepatoma, dosed 68 weeks, study length 68 weeks): 55.9 mg/kg/day
TD50 (mouse, strain B6C3F1, females, oral dosing, site: liver, lesion: several types, types named in the paper, dosed 68 weeks, study length 68 weeks): 32.4 mg/kg/day
TD50 (mouse, strain B6C3F1, females, oral dosing, site: lung, lesion: adenoma, dosed 68 weeks, study length 68 weeks): 97.4 mg/kg/day
TD50 (mouse, strain B6C3F1, females, oral dosing, site: lung, lesion: several types, types named in the paper, dosed 68 weeks, study length 68 weeks): 79 mg/kg/day
TD50 (mouse, strain B6C3F1, males, in drinking water, site: heart, lesion: hemangiosarcoma, dosed 65 weeks, study length 70 weeks): 417 mg/kg/day
TD50 (mouse, strain B6C3F1, males, in drinking water, site: liver, lesion: hemangioma, dosed 65 weeks, study length 70 weeks): 63.3 mg/kg/day
TD50 (mouse, strain B6C3F1, males, in drinking water, site: liver, lesion: hemangiosarcoma, dosed 65 weeks, study length 70 weeks): 122 mg/kg/day
TD50 (mouse, strain B6C3F1, males, in drinking water, site: liver, lesion: hepatocellular adenoma, dosed 65 weeks, study length 70 weeks): 38.2 mg/kg/day
TD50 (mouse, strain B6C3F1, males, in drinking water, site: lung, lesion: alveolar/bronchiolar adenoma, dosed 65 weeks, study length 70 weeks): 5.91 mg/kg/day
TD50 (mouse, strain B6C3F1, males, in drinking water, site: lung, lesion: alveolar/bronchiolar carcinoma, dosed 65 weeks, study length 70 weeks): 242 mg/kg/day
TD50 (mouse, strain B6C3F1, males, in drinking water, site: lung, lesion: several types, types named in the paper, dosed 65 weeks, study length 70 weeks): 5.91 mg/kg/day
TD50 (mouse, strain B6C3F1, males, oral dosing, site: any site (literature study), lesion: several types, types named in the paper, dosed 70 weeks, study length 70 weeks): 22.4 mg/kg/day
TD50 (mouse, strain B6C3F1, males, oral dosing, site: liver, lesion: hepatoma, dosed 70 weeks, study length 70 weeks): 81.7 mg/kg/day
TD50 (mouse, strain B6C3F1, males, oral dosing, site: liver, lesion: several types, types named in the paper, dosed 70 weeks, study length 70 weeks): 46 mg/kg/day
TD50 (mouse, strain B6C3F1, males, oral dosing, site: lung, lesion: adenoma, dosed 70 weeks, study length 70 weeks): 81.7 mg/kg/day
TD50 (mouse, strain B6C3F1, males, oral dosing, site: lung, lesion: several types, types named in the paper, dosed 70 weeks, study length 70 weeks): 65.9 mg/kg/day
TD50 (mouse, strain CF-1, females, in drinking water, site: any site (literature study), lesion: several types, types named in the paper, dosed 133 weeks, study length 133 weeks): 23.3 mg/kg/day
carcinogen call (mouse, strain CF-1, females, in drinking water, site: liver, lesion: hepatoma, dosed 133 weeks, study length 133 weeks): negative (inactive)
TD50 (mouse, strain CF-1, females, in drinking water, site: lung, lesion: one or several types, types not named, dosed 133 weeks, study length 133 weeks): 23.8 mg/kg/day
TD50 (mouse, strain CF-1, males, in drinking water, site: any site (literature study), lesion: several types, types named in the paper, dosed 125 weeks, study length 125 weeks): 12.1 mg/kg/day
carcinogen call (mouse, strain CF-1, males, in drinking water, site: liver, lesion: hepatoma, dosed 125 weeks, study length 125 weeks): negative (inactive)
TD50 (mouse, strain CF-1, males, in drinking water, site: lung, lesion: one or several types, types not named, dosed 125 weeks, study length 125 weeks): 13.2 mg/kg/day
TD50 (mouse, strain NMRI, both sexes, in drinking water, site: any site (literature study), lesion: benign tumor, dosed 101 weeks, study length 104 weeks): 0.434 mg/kg/day
TD50 (mouse, strain NMRI, both sexes, in drinking water, site: any site (literature study), lesion: malignant tumor, dosed 101 weeks, study length 104 weeks): 14.7 mg/kg/day
TD50 (mouse, strain Swiss, both sexes, in feed, site: lung, lesion: adenocarcinoma, dosed 116 weeks, study length 116 weeks): 5060 mg/kg/day
TD50 (mouse, strain Swiss, both sexes, in feed, site: lung, lesion: adenoma, dosed 116 weeks, study length 116 weeks): 36.1 mg/kg/day
TD50 (rat, strain Sprague-Dawley, both sexes, in drinking water, site: any site (literature study), lesion: benign tumor, dosed 97 weeks, study length 104 weeks): 91.2 mg/kg/day
TD50 (rat, strain Sprague-Dawley, both sexes, in drinking water, site: any site (literature study), lesion: malignant tumor, dosed 97 weeks, study length 104 weeks): 41.3 mg/kg/day

— PubChem BioAssay AID1745844 (Carcinogenic Potency Database (CPDB), 2022)
